Experimental data as given in publication PMC9117128, “Phage anti-CBASS and anti-Pycsar nucleases subvert bacterial immunity” (Nature, 2022).

What was measured:
[1] = target: T1, YhfI (Bacillus subtilis, UniProt O07607); test: HPLC cleavage assay; type: biochemical; conditions: Mg2+, Mn2+, pH 7.5, 37 °C
T1 construct: recombinant, homodimer

[2] = target: T2, PycTIR (Burkholderia cepacia, UniProt A0A0J5WTU0); test: fluorescent NADase activation assay; type: biochemical; conditions: 500 µM ε-NAD, pH 7.5, room temperature
T2 sequence (A0A0J5WTU0 1-303): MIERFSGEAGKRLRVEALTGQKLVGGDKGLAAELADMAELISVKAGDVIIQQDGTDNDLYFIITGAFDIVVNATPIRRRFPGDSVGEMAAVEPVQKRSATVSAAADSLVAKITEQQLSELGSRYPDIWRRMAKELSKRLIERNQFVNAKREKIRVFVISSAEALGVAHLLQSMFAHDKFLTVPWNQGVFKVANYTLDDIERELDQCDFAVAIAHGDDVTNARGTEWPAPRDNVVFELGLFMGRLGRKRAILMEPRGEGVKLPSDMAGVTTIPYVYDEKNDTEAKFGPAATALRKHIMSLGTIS

[3] = target: the molecule itself; test: crystal structure; hanging-drop crystals grown at 18 °C from purified protein (10 mg/ml, 20 mM HEPES-KOH pH 7.5, 80 mM KCl, 1 mM TCEP); homodimer seen in the crystal structures

T1 sequence (O07607 whole entry): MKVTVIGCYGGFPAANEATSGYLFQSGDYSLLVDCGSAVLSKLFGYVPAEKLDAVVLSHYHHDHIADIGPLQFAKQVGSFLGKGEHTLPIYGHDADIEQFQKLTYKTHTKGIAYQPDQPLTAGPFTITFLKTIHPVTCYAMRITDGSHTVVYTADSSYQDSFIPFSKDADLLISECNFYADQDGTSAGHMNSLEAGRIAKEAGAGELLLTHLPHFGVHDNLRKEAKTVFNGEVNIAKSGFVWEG

Row | Molecule | stoichiometry N [3] | other results
1 | Nc1nc2c(ncn2[C@@H]2O[C@@H]3COP(=O)(O)O[C@H]3[C@H]2O)c(=O)[nH]1 [cGMP] |  | HPLC cleavage assay [1]: exhibited a strong preference for cAMP/cGMP over cCMP/cUMP cleavage
2 | NC(=O)c1ccc[n+]([C@@H]2O[C@H](COP(=O)(O)OP(=O)(O)OC[C@H]3O[C@@H](n4cnc5c4ncn4ccnc54)[C@H](O)[C@@H]3O)[C@@H](O)[C@H]2O)c1 [ε-NAD] |  | fluorescent NADase activation assay ([2]; cUMP as activator): Release of fluorescent substrate from an NAD^+ analogue incubated with the Pycsar effector PycTIR
3 | O=c1ccn([C@@H]2O[C@@H]3COP(=O)(O)O[C@H]3[C@H]2O)c(=O)[nH]1 [cUMP] |  | fluorescent NADase activation assay ([2]; activator): cUMP-dependent activation of the Pycsar NADase effector PycTIR
4 | Paenibacillus xerothermodurans Apyc1 (enzyme, Apyc1 homologue (MBL-fold class II phosphodiesterase) of Paenibacillus xerothermodurans; also called P. xerothermodurans Apyc1; Paenibacillus Apyc1; source: E. coli BL21(DE3) RIL, purified (Ni-NTA, Superdex 75 SEC); not shown: 6×His-SUMO2 or 6×His-MBP-SUMO2, N-terminal, cleaved) SLQIQMIGTGSAFAKKFYNNNALVKCNGFQLLIDCGVTAPRALHELGVPITGIDGILITHIHADHVGGIEEFAFRLKYKYGMTIKLFVPAALVNPLWDHSLRGGLENKAEGLEQLADYFDVVALEEAVVHEIHPGLTVELVRSQHIAGKASYSLLLNNLLFYSSDARFNYAQLVELSTSGRCKYILHDCQLAEPAAVHATLNELLTLPEAVQEMIMLMHYDDEMEQFIGKSGKMSFMQQHKTYSFTEAT | 2 | 
5 | Paenibacillus J14 Apyc1 (enzyme, selenomethionine-labelled, Apyc1 homologue (MBL-fold class II phosphodiesterase) of Paenibacillus J14, GenBank WP_028539944.1; Crystallised with a hydrolysis-resistant phosphorothioate analogue of cAMP; also called P. J14 Apyc1; Paenibacillus Apyc1; source: E. coli BL21(DE3) RIL, selenomethionine-labelled, purified (Ni-NTA, Superdex 75 SEC); not shown: 6×His-SUMO2 or 6×His-MBP-SUMO2, N-terminal, cleaved) ALRLQMLGTGGAFAKKYFNNNALLYAGDFTLLIDCGITAPLALHTIGKSVEEIDAVLITHIHGDHVGGLEELAFRRKFGSGRKPILYIAENLVEPLWENTLKGGLSQDGVIHSLNDVFDVRLLKESEPAQLAPELKVELIRTPHIPGKPSYSLYINDEIFYSADMTFEPELLMRLVRERGCRRIFHEVQLTGKGEVHTTLQELLSLPTEIQSQILLKHYSDDMESFRGATGNMDFLRQHEVYTL | 2 | 
6 | Apyc1 from the phage Bsp38 (enzyme, Anti-Pycsar protein Apyc1 (MBL-fold class II phosphodiesterase) of phage Bsp38; The SUMO2 tag was cleaved with SENP2; also called Bsp38 Apyc1; source: E. coli BL21(DE3) RIL, purified (Ni-NTA, Superdex 75 SEC); not shown: 6×His-SUMO2 or 6×His-MBP-SUMO2, N-terminal, cleaved) MLHTTQIRMVGTGSAFSKKFYNNSALVTFTNGYNLLIDCGHSVPKGLHDADIPLESIDGILITHTHADHIGGLEEVALYNKFVLGGRKIDLLVPNTLVESLWENSLKGGLRYSDTYDDLSLSDYFTVRSLKTFTSGAARTQLEENIAIKLYPTFHVSHMASYAVGLEDRGEDKVFYSSDTIFDEYLIDYALTYSWVFHDCQFFTGGVHASLDELLNYIPEEDQDRVFLMHYGDNMEDFFTKTGRMRFALQGRTYIL | 2 | 
